# Source: patent US8476036B2, “Nonluminogenic assay for living cells” (Promega Corporation, priority 2004, dated 2013)
# Marks after values point to notes of the source that are not given here. Numbered stars: 1 amine (or outer) side, 2 acyl side, 3 side chain; on linkers, the order of the positions; unused ones are H or OH. Square brackets hold non-standard residues; d marks the D form. Peptide text beside a SMILES is read from it. * marks the point of attachment. X1 = O=C(O)C1CSC(c2nc3ccc(N*)cc3s2)=N1; AFC = O=c1cc(C(F)(F)F)c2ccc(N*)cc2o1; Glutaryl = O=C(CCCC(=O)[*:2])[*:1]; AMC = Cc1cc(=O)oc2cc(N*)ccc12; Suc = O=C(CCC(=O)[*:2])[*:1]; Cbz = O=C(OCc1ccccc1)*
# Columns and labels:
# Format in all cases: cell-based
# [1] = system: HL-60 or Jurkat; assay: Protease retention substrate selectivity, untreated viable cells; set-up: key: None denotes no statistical activity above control population.; (+) to (+++++) denotes the range of activity above control population from modest to robust; (+) to (+++++) denotes the range of activity above control population from modest to robust; (+) to (+++++) denotes the range of activity above control population from modest to robust; (+) to (+++++) denotes the range of activity above control population from modest to robust; (+) to (+++++) denotes the range of activity above control population from modest to robust; details: substrate cleavage activity above control in untreated viable cells; 15-30 minutes at 37° C.
# Source text: (§1) Ala-Ala-Phe-AMC was obtained from Promega. Z-Leu-Leu-Val-Tyr-aminoluciferin (LLVY corresponds to SEQ ID NO:18), Z-Leu-Arg-aminoluciferin, Z-Phe-Arg-aminoluciferin, Ala-Ala-Phe-aminoluciferin, (Ala-Ala-Phe)2-R110, and (Gly-Phe)2-R110 were synthesized by Promega Biosciences. Suc-Ala-Ala-Phe-AMC, H-Phe-AMC, H-Tyr-AMC, Glutyl-Ala-Ala-Phe-AMC (EMF corresponds to SEQ ID NO:32), H-Gly-Phe-AMC, Z-Gly-Ala-Met-AMC, Suc-Leu-Leu-Val-Tyr-AMC (LLVY corresponds to SEQ ID NO:18), D-Ala-Leu-Lys-AMC, H-Gly-Ala-AMC, H-Gly-Gly-AMC, Suc-Ala-Ala-Phe-AMC, Z-Arg-Leu-Arg-Gly-Gly-AMC (RLRGG corresponds to SEQ ID NO:29), Z-Leu-Arg-Gly-Gly-AMC (LRGG corresponds to SEQ ID NO:30) and Ac-Ala-Ala-Tyr-AMC were sourced from Bachem. Gly-Phe-AFC, Pro-Phe-Arg-AMC, Gly-Gly-Leu-AMC, and Ser-Tyr-AFC were obtained from Calbiochem. Z-Phe-Arg-AMC and Suc-Arg-Pro-Phe-His-Leu-Leu-Val-Tyr-AMC (RPHLLVY corresponds to SEQ ID NO:31) were purchased from Sigma.
# (§2) All substrates were solubilized in DMSO from 10 to 100 mM depending upon inherent solubility. Fluorescent substrates were diluted to 100 μM to 1 mM in 10 mM Hepes, pH 7.5 or matched cell culture medium with 10% serum and added in 1/10th volumes to lysed (freeze fractured, sonicated, or detergent) or untreated viable cells in white-walled, clear bottomed 96-well plates. HL-60 or Jurkat were used in the experimentation interchangeably because of their easily manipulated suspension phenotype. Plates were incubated for 15-30 minutes at 37° C. prior to measuring fluorescence by the CYTOFLUOR® II.
# (§3) Luminescent substrates were added to a luciferin detection cake (Promega V859A) resuspended in 2 ml 10 mM Hepes, pH 7.5 to 500 μM. ⅕^th volume of the proluminescent reaction mixes were added to lysed (freeze fractured, sonicated, or detergent) or untreated viable cells in white-walled, clear bottomed 96-well plates. Again, HL-60 or Jurkat were used in the experimentation interchangeably. Plates were incubated at 37° C. in a MeCour' circulating heat block controlled by a Caron 2050W exchange unit. Luminescence was measured between 15 and 30 minutes (signal steady state).
# (§4) A broad variety of proteolytic substrates were examined in an effort to characterize potential substrate preferences for protease release or retention in compromised or viable cells (see Table 4). […] Non-blocked substrates (H- and the like) were examined to include the contribution of aminopeptidase activities. From this panel, at least three proteolytic profiles emerged: an aminopeptidase-like activity preferring unblocked Ala-Ala-Phe tripeptide, a proteosomal (chymotrypsin-like) activity measured by release of blocked Leu-Leu-Val-Tyr (SEQ ID NO:18) peptides, and an exceedingly labile activity by Gly-Phe, Gly-Ala, Phe-, Tyr- or Gly-Gly-Leu substrates. The latter activities were only measurable in viable, intact cells. Of further significance is that several fluorophores or proluminescent labels can be used to detect these activities, ultimately allowing for enhanced downstream multiplexing flexibility.
# [2] = system: HL-60 or Jurkat; assay: Protease release substrate selectivity, lysed (freeze fractured, sonicated, or detergent) cells; set-up: key: None denotes no statistical activity above control population.; (+) to (+++++) denotes the range of activity above control population from modest to robust; (+) to (+++++) denotes the range of activity above control population from modest to robust; (+) to (+++++) denotes the range of activity above control population from modest to robust; (+) to (+++++) denotes the range of activity above control population from modest to robust; (+) to (+++++) denotes the range of activity above control population from modest to robust; details: substrate cleavage activity above control in lysed cells; 15-30 minutes at 37° C.
# Source text: as §1, §2, §3, §4
# [3] = system: HL-60 cells; assay: Luminescent protease release assay with different enzyme targets; details: HL-60 with or without sonication, 15 minutes at 37° C.
# Procedure: Actively doubling HL-60 cells were adjusted to 100,000 cells/ml and split into two aliquots. One aliquot was sonicated using a microtip MISONIXTM™ 3000 with 30% power for three 5 second pulses. The other aliquot was held at 37° C. The cell suspension and lysates were then two-fold serially diluted in RPMI 1640 +10% FBS in 100 μl volumes. Medium only served as the no cell control. A luciferin detection reagent cake (Promega V859A) was resuspended with 2.0 ml of 10 mM Hepes, pH 7.5. The luciferin detection reagent was then divided and made 1 mM with either Z-Leu-Leu-Val-Tyr-aminoluciferin (LLVY corresponds to SEQ ID NO:18) or Ala-Ala-Phe-aminoluciferin. Each reagent was added to independent replicates of the plate in 1/10th volumes and allowed to incubate for 15 minutes at 37° C. in the Me'Cour thermal jacketed water bath holder before luminescence measurement using the BMG FLUOstar Optima.
# [4] = system: SK-MEL-28 cells; assay: Live cell protease retention multiplexed with caspase 3/7 activity, SK-MEL-28; details: SK-MEL-28, serial dilutions, 5 hours
# Procedure: SK-MEL-28 or ACHN cells were seeded into white-walled, clear bottomed 96 well plates at a density of 10,000 cells per well in 100 μl volumes and allowed to attach at 37° C. in 5% CO2 for a period of 2 hours. After attachment, 50 μl of medium was carefully removed and replaced with serial dilutions of either ionomycin or staurosporine in MEM+10% FBS. Medium only served as control. The plate was incubated for an additional 5 hours. A 1 mM solution of Gly-Phe-AFC was made in MEM and added to the wells in a 1/10th volume. Resulting fluorescence was measured using a CYTOFLUOR® II. Caspase-GIo™ 3/7 reagent was then added and luminescence measure using a BMG FLUOstar Optima.
Molecule,Retention [1],Release [2],Performance as protease release substrate [3],Cytotoxicity profile (live cell fluorescence and caspase 3/7 activity) [4]
"CC(N)C(=O)NC(C)C(=O)NC(Cc1ccccc1)C(=O)Nc1ccc2nc(C3=NC(C(=O)O)CS3)sc2c1 (stereo not drawn) [Ala-Ala-Phe-Aminoluc, Ala-Ala-Phe-aminoluciferin]",None,+++++,–,–
"Cc1cc(=O)oc2cc(NC(=O)[C@H](Cc3ccccc3)NC(=O)[C@H](C)NC(=O)[C@H](C)NC(=O)CCCC(=O)O)ccc12 [Gluty-Ala-Ala-Phe-AMC, Glutyl-Ala-Ala-Phe-AMC] (Glutaryl-Ala-Ala-Phe-{AMC})",None,None,–,–
NCC(=O)N[C@@H](Cc1ccccc1)C(=O)Nc1ccc2c(C(F)(F)F)cc(=O)oc2c1 [Gly-Phe-AFC] (H-Gly-Phe-{AFC}),+++++,None,–,–
"Cc1cc(=O)oc2cc(NC(=O)[C@H](Cc3ccccc3)NC(=O)CN)ccc12 [Gly-Phe-AMC, H-Gly-Phe-AMC] (H-Gly-Phe-{AMC})",++,None,–,–
Cc1cc(=O)oc2cc(NC(=O)[C@H](CCCCN)NC(=O)[C@H](CC(C)C)NC(=O)[C@@H](C)N)ccc12 [H-D-Ala-Leu-Lys-AMC] (H-[dA]-Leu-Lys-{AMC}),None,None,–,–
Cc1cc(=O)oc2cc(NC(=O)C(C)NC(=O)CN)ccc12 (stereo not drawn) [H-Gly-Ala-AMC],++,None,–,–
Cc1cc(=O)oc2cc(NC(=O)CNC(=O)CN)ccc12 [H-Gly-Gly-AMC] (H-Gly-Gly-{AMC}),None,None,–,–
Cc1cc(=O)oc2cc(NC(=O)[C@@H](N)Cc3ccccc3)ccc12 [H-Phe-AMC],+++,None,–,–
Cc1cc(=O)oc2cc(NC(=O)[C@H](CCCN=C(N)N)NC(=O)[C@H](Cc3ccccc3)NC(=O)[C@@H]3CCCN3)ccc12 [H-Pro-Phe-Arg-AMC] (H-Pro-Phe-Arg-{AMC}),None,None,–,–
Cc1cc(=O)oc2cc(NC(=O)[C@@H](N)Cc3ccc(O)cc3)ccc12 [H-Tyr-AMC],++,None,–,–
N[C@@H](CO)C(=O)N[C@@H](Cc1ccc(O)cc1)C(=O)Nc1ccc2c(C(F)(F)F)cc(=O)oc2c1 [Ser-Tyr-AFC] (H-Ser-Tyr-{AFC}),None,None,–,–
Cc1cc(=O)oc2cc(NC(=O)[C@H](Cc3ccccc3)NC(=O)[C@H](C)NC(=O)[C@H](C)NC(=O)CCC(=O)O)ccc12 [Suc-Ala-Ala-Phe-AMC] (Suc-Ala-Ala-Phe-{AMC}),None,None,–,–
Cc1cc(=O)oc2cc(NC(=O)[C@H](Cc3ccc(O)cc3)NC(=O)[C@@H](NC(=O)[C@H](CC(C)C)NC(=O)[C@H](CC(C)C)NC(=O)CCC(=O)O)C(C)C)ccc12 [Suc-Leu-Leu-Val-Tyr-AMC] (Suc-LLVY-{AMC}),None,+,–,–
Cc1cc(=O)oc2cc(NC(=O)CNC(=O)CNC(=O)[C@H](CCCN=C(N)N)NC(=O)[C@H](CC(C)C)NC(=O)[C@H](CCCN=C(N)N)NC(=O)OCc3ccccc3)ccc12 [Z-Arg-Leu-Arg-Gly-Gly-AMC],None,None,–,–
CSCC[C@H](NC(=O)[C@H](C)NC(=O)CNC(=O)OCc1ccccc1)C(=O)Nc1ccc2c(C)cc(=O)oc2c1 [Z-Gly-Ala-Met-AMC] (Cbz-Gly-Ala-Met-{AMC}),None,None,–,–
Cc1cc(=O)oc2cc(NC(=O)[C@H](CC(C)C)NC(=O)CNC(=O)CNC(=O)OCc3ccccc3)ccc12 [Z-Gly-Gly-Leu-AMC] (Cbz-Gly-Gly-Leu-{AMC}),++*,None,–,–
"CC(C)C[C@H](NC(=O)OCc1ccccc1)C(=O)N[C@@H](CCCNC(=N)N)C(=O)Nc1ccc2nc(C3=N[C@@H](C(=O)O)CS3)sc2c1 [Z-Leu-Arg-Aluc, Z-Leu-Arg-aminoluciferin]",None,None,–,–
Cc1cc(=O)oc2cc(NC(=O)CNC(=O)CNC(=O)[C@H](CCCN=C(N)N)NC(=O)[C@H](CC(C)C)NC(=O)OCc3ccccc3)ccc12 [Z-Leu-Arg-Gly-Gly-AMC] (Cbz-LRGG-{AMC}),None,None,–,–
"CC(C)CC(NC(=O)OCc1ccccc1)C(=O)NC(CC(C)C)C(=O)NC(C(=O)NC(Cc1ccc(O)cc1)C(=O)Nc1ccc2nc(C3=NC(C(=O)O)CS3)sc2c1)C(C)C (stereo not drawn) [Z-Leu-Leu-Val-Tyr-Aluc, Z-Leu-Leu-Val-Tyr-aminoluciferin] (Cbz-LLVY-X1; configuration not given here)",None,++,performed less optimally than the AAF-aminoluciferin sequence,–
Cc1cc(=O)oc2cc(NC(=O)C(CCCN=C(N)N)NC(=O)C(Cc3ccccc3)NC(=O)OCc3ccccc3)ccc12 (stereo not drawn) [Z-Phe-Arg-AMC] (Cbz-Phe-Arg-{AMC}; configuration not given here),None^1,None,–,–
"N=C(N)NCCCC(NC(=O)C(Cc1ccccc1)NC(=O)OCc1ccccc1)C(=O)Nc1ccc2nc(C3=NC(C(=O)O)CS3)sc2c1 (stereo not drawn) [Z-Phe-Arg-Aluc, Z-Phe-Arg-aminoluciferin]",None,None,–,–
C[C@H](CCC(=O)O)C[C@H](C)C[C@H](C)C(=O)/C=C(\O)[C@H](C)C[C@H](C)C/C=C/[C@@H](C)[C@@H](O)[C@@H](C)[C@@H](O)C[C@@H]1CC[C@@](C)([C@H]2CC[C@@](C)([C@@H](C)O)O2)O1 [ionomycin],–,–,–,necrotic-type profile
Suc-RPFHLLVY-{AMC} [S-R-P-F-H-L-L-V-Y-AMC],None,None,–,–
